In patent US20230365590A1, “BIPHENYL COMPOUND AS IMMUNOMODULATOR, PREPARATION METHOD THEREFOR AND APPLICATION THEREOF” (SHENZHEN CHIPSCREEN BIOSCIENCES CO., LTD., priority 2020, published 2023):

Key:
[1] = Single-dosing pharmacokinetics test; assay type: in vivo, B-hPD-1/hPD-L1 female mice; settings: female, B-hPD-1/hPD-L1 (humanized), mouse, po; humanized mice, single dose of 100 mg/kg by gavage, plasma
Method: 24 6-week old B-hPD-1/hPD-L1 female mice (purchased from Biocytogen (Jiangsu) Gene Biotechnology Co., Ltd.) were taken and the test compound was dissolved in a solvent containing 5% DMSO, 60% PEG400 and 35% purified water. The compound I-6 and three control molecules, Example 17, Compound 14 (INCB086550) and Example 180 were dosed. The compound was administered by gavage in a single dose of 100 mg/kg and blood was collected through fundus vein plexus after administration. The time points for blood collection were 15 min, 30 min, 1 h, 2 h, 4 h, 8 h, 24 h, 32 h and 48 h. About 0.1 mL of blood was collected and centrifuged in a centrifuge tube (heparin sodium anticoagulation) at 5000 rpm for 5 min to separate plasma, and then frozen at −20° C. for testing. After the plasma sample was treated, the concentration of the compound in the plasma was determined by liquid chromatography-mass spectrometry (LC-MS/MS). The pharmacokinetic parameters were calculated using Phoenix WinNonlin 7.0 based on the average blood concentration data at different time points.

[2] = Repeated-dosing pharmacokinetics test; assay type: in vivo, B-hPD-1/hPD-L1 humanized female mice; settings: female, B-hPD-1/hPD-L1 (humanized), mouse, po; humanized mice, 50 mg/kg by gavage once a day for 12 days, plasma on day 12
Method: 24 6-week old B-hPD-1/hPD-L1 humanized female mice (purchased from Biocytogen (Jiangsu) Gene Biotechnology Co., Ltd.) were taken and the test compound was dissolved in a solvent containing 5% DMSO, 60% PEG400 and 35% purified water. The compound I-6 and three control molecules, Example 17, Compound 14 (INCB086550) and the aforementioned Example 180 were dosed. The compound was administered by gavage once a day in a dose of 50 mg/kg for 12 consecutive days, and blood was alternately collected through fundus vein plexus on day 12 of administration. The time points for blood collection were 15 min, 30 min, 1 h, 2 h, 4 h, 8 h, 24 h, 32 h and 48 h. About 0.1 mL of blood was collected and centrifuged in a centrifuge tube (heparin sodium for anticoagulation) at 5000 rpm for 5 min to separate plasma, and then frozen at −20° C. for testing. The concentration of the compound in the plasma was determined by liquid chromatography-mass spectrometry (LC-MS/MS). The pharmacokinetic parameters were calculated using Phoenix WinNonlin 7.0 based on the average blood concentration data at different time points.

Compound | AUC(0-t) [1] [ng·h/mL] | MRT [1] [h] | half-life [1] [h] | AUC(0-t) [2] [ng·h/mL] | MRT [2] [h] | half-life [2] [h]
COCC12CCC(CCN3CCc4c(nc(C(=O)Nc5cccc(-c6cccc(NC(=O)c7nc8c(n7C)CCN(CCC79CCC(C(=O)O)(CC7)C9)C8)c6Cl)c5Cl)n4C)C3)(CC1)C2 [Compound I-6, 4-(2-(2-((2,2′-dichloro-3′-(5-(2-(4-(methoxymethyl)bicyclo[2.2.1]heptan-1-yl)ethyl)-1-methyl-4,5,6,7-tetrahydro-1H-imidazo[4,5-c]pyridine-2-carboxamido)-[1, 1′-biphenyl]-3-yl)carbamoyl)-1-methyl-1,4,6,7-tetrahydro-5H-imidazo[4,5-c]pyridin-5-yl)ethyl)bicyclo[2.2.1]heptane-1-carboxylic acid] | 207000 | 10.9 | 9.3 | 151000 | 12 | 9.4
Cn1c(C(=O)Nc2cccc(-c3cccc(NC(=O)c4nc5c(n4C)CCN(CC46CCC(C(=O)O)(CC4)C6)C5)c3Cl)c2Cl)nc2c1CCN(CCO)C2 [Example 180] | 45400 | 4.7 | 3.5 | 27800 | 4.2 | 3.3
